The text below walks through data of patent US9656953B2, “Inhibition of cell proliferation” (University of South Florida, priority 2005, dated 2017).

Structures are written as SMILES.

T1 sequence (P04049 1-149 limits assumed): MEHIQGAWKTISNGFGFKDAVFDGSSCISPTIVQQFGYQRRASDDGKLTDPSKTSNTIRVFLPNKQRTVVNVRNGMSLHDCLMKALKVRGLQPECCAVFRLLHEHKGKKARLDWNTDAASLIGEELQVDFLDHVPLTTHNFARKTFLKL
T1 sequence (P06400 whole entry): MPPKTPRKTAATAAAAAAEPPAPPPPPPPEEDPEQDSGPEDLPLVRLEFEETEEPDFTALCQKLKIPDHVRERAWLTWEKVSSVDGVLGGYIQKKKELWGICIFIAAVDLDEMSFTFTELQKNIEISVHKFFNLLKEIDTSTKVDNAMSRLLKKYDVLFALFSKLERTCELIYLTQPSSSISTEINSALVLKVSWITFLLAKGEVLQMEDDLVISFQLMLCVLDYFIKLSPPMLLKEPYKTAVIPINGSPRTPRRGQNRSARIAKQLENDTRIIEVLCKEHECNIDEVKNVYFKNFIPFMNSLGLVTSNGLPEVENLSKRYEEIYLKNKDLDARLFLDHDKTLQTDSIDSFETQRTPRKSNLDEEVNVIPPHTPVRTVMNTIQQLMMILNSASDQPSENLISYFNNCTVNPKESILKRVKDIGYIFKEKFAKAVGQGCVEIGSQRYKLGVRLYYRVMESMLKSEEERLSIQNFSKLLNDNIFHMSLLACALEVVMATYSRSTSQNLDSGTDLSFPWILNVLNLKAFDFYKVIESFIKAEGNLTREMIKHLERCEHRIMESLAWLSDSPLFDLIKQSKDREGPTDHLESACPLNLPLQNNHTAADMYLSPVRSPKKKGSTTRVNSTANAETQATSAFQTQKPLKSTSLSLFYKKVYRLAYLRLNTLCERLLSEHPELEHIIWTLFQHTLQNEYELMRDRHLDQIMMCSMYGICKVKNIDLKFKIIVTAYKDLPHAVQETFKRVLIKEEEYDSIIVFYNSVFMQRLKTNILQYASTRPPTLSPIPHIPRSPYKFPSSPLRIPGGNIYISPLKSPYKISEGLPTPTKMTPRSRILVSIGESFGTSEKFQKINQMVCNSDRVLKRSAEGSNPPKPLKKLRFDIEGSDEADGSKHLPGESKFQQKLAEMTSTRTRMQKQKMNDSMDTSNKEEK

One assay concerns Rb phosphorylation (serines 807 and 811). Nature of the assay: Western blot of Rb phosphorylation, A549 cells. The assay is classed as cell-based, human. Particulars: cells treated 18 hours, western blotting. An excerpt: Lysate preparation, pmmunoprecipitation, and pestern plotting.
On to `CNC(=O)c1cc(Oc2ccc(NC(=O)Nc3ccc(Cl)c(C(F)(F)F)c3)cc2)ccn1` [BAY43-9006, sorafenib, reference compound], for which the Rb phosphorylation result was “did not seem to have any effect on Rb phosphorylation”.

The next assay concerns the target T1, Rb:Raf-1 binding (Homo sapiens, UniProt P04049+P06400).
T1 construct: a glutathione S-transferase (GST) Raf-1 (1-149aa) overnight at 4° C; made in house
Nature of the assay: GST-Rb/GST-Raf-1 ELISA. The conditions noted are these: ELISA. On the procedure:
In vitro library screening assays. Enzyme Linked ImmunoSorbent Assay (ELISA) 96-well plates were coated with 1 μg/mL of a glutathione S-transferase (GST) Raf-1 (1-149aa) overnight at 4° C. Subsequently the plates were blocked and GST Rb at 20 μg/mL was rotated at room temperature (RT) for 30 minutes in the presence or absence of the compounds at 20 micromolar (μM). GST-Rb +/− compounds were then added to the plate and incubated for 90 minutes (min) at 37° C. The amount of Rb bound to Raf-1 was detected by Rb polyclonal antibody (Santa Cruz Biotechnology, Santa Cruz, Calif.) 1:1000 incubated for 60 min at 37° C. Donkey-anti-rabbit-IgG-HRP (1:10,000) was added to the plate and incubated at 37° C. for 60 minutes. The color was developed with orthophenylenediamine (Sigma, St. Louis, Mo.) and the reaction was terminated with 3 molar (M) H2SO4. Absorbance was read at 490 nanometers (nm). To determine disruption of Rb to E2F1, Phb, or HDAC1 the above protocol was used with the exception of coating GST Rb on the ELISA plate and adding the drugs in the presence or absence of GST E2F1, Phb, or HDAC1. […] Prohibitin monoclonal antibody was used at 1:1000 to detect the amount of Rb bound to Prohibitin. For disruption of MEK-Raf-1 binding ELISAs, Raf-1 1 microgram/milliliter (μg/mL) was coated on the plate and GST-MEK (20 μg/mL) was incubated +/− the compounds for 30 minutes at room temperature. Mek1 polyclonal antibody was used at 1:1000 to detect the binding of Raf-1 to Mek1. The IC50 concentrations for the Rb:Raf-1 inhibitors were determined by plotting with Origin 7.5 software (Origin, Northampton, Mass.).
A screen was developed to identify small molecule inhibitors of the Rb:Raf-1 interaction. A diversity set, comprising 1981 compounds (National Cancer Institute, Bethesda, Md.) was examined using a glutathione S-transferase-retinoblastoma/glutathione S-transferase-Raf-1 kinase Enzyme-Linked ImmunoSorbent Assay screen (GST-Rb/GST-Raf-1 ELISA).
(An ELISA detects its analyte on a solid surface through an enzyme-linked reagent.)
Consider `Cl.N=C(N)SCc1c(Cl)cccc1Cl` [Compound 3s], for which the “Rb:Raf-1 binding inhibitory activity in words” value is “inactive”.
With `Cl.N=C(N)SCc1c(Cl)cc(Cl)cc1Cl` [Compound 3t], the “Rb:Raf-1 binding inhibitory activity in words” value is “inactive”.
For the compound `Cl.N=C(N)SCc1ccccc1` [Compound 3r], the “Rb:Raf-1 binding inhibitory activity in words” value was “inactive”.

Staying with this assay, now noted: IC50 (nM), inhibition of the Rb:Raf-1 binding, concentration that inhibits the Rb:Raf-1 binding by 50%, triplicate.
Usually IC50 stands for the midpoint of a concentration-inhibition curve. Consider `Cl.N=C(N)SCc1ccc(Cl)c2ccccc12` [Compound 5c], for which the half-maximal inhibitory concentration (IC50) is 1900 nM.

The same assay, now with this note: IC50 ratio to 3a.
As for `Cl.N=C(N)SCc1ccc(Cl)c(Cl)c1` [Compound 3h], the “fold less active compared to 3a” value is reported as 50 fold.
Turning to `Cl.N=C(N)SCc1cccc(Cl)c1Cl` [Compound 3d], the “fold less active compared to 3a” value is recorded as “more than 2 fold”.

Staying with this assay, now noted: IC50 ratio to 5a.
Turning to `Cl.N=C(N)SCc1ccc(Cl)c2ccccc12` [Compound 5c], the “fold reduction of activity relative to 5a” value came to 24 fold.

The same assay, now with this note: concentration that inhibits the Rb:Raf-1 binding by 50%, triplicate; read-out: IC50 (nM), inhibition of the Rb:Raf-1 binding.
For `Clc1ccc(CSc2nnc[nH]2)c(Cl)c1` [Compound 9a], the IC50 came out at 97 nM.
Take `N=C(N)NCc1ccc(Cl)cc1` [Compound 6a]: the IC50 is 539 nM.
Take `N=C(N)SCc1ccncc1` [Compound 5b]: the IC50 amounted to 2630 ± 330 nM.
As for `CC(SC(=N)N)c1ccc(Cl)c(Cl)c1` (centres unmarked) [Compound 4b], the 50% inhibitory concentration (IC50) amounted to 510 ± 116 nM.
On to `Cl.N=C(N)SCc1ccc(Cl)c(Cl)c1` [Compound 3h], for which the IC50 was found to be 3900 nM.
On the same count and under the same terms, the same measure for `Nc1nnc(SCc2ccc(Cl)cc2Cl)[nH]1` [Compound 9b]: 131 nM.
`CCC(SC(=N)N)c1ccc(Cl)cc1Cl` (centres unmarked) [Compound 4c]: the IC50 stood at 567 nM.
In the case of `CC(SC(=N)N)c1ccc(Cl)cc1Cl` (centres unmarked) [Compound 4a], the IC50 stood at 322 nM.
On the same count and under the same terms, the same measure for `N=C(N)SCc1ccc2ccccc2c1Br` [Compound 5a]: 80 nM.
For the compound `N=C(N)SCc1cc(Cl)ccc1Cl` [Compound 3i], the IC50 was determined as 2110 ± 180 nM.
In the case of `Cl.N=C(N)SCc1cccc(Cl)c1Cl` [Compound 3d], the IC50 turned out to be 164 nM.
Turning to `N=C(N)SCc1ccc(Cl)cc1` [Compound 3g, 4-chlorobenzylisothiourea], the IC50 turned out to be 274 nM.

Still in this assay, the particulars now being: inhibition of Rb:Raf-1 binding, compound at 20 μM.
A word on the % Inhibition: it is how much of the control response was suppressed. Lower therefore signals a weak effect. With `N=C(N)NCc1ccccc1Cl` [Compound 6e], the “% Inhibition at 20 μM” value worked out at 25%.
Consider `Cl.N=C(N)SCc1ccc(Cl)c2ccccc12` [Compound 5c], for which the “% Inhibition at 20 μM” value was 93%.
In the case of `Cl.N=C(N)NCc1ccccc1Cl` [Compound 6d], the “% Inhibition at 20 μM” value was determined as 59%.
With `Cl.N=C(N)NCc1ccc(Cl)cc1` [Compound 6b], the “% Inhibition at 20 μM” value turned out to be 61%.

Staying with this assay, now noted: inhibition of Rb:Raf-1 binding, compound at 20 μM; 20 µM.
`N=C(N)NCc1ccc(Cl)cc1` [Compound 6a]: the “% Inhibition at 20 μM” value was 100%.
With `N=C(N)NCc1ccc(Cl)cc1` [Compound 6f], the “% Inhibition at 20 μM” value is 16%.

The same assay, now with this note: inhibition of Rb:Raf-1 binding, compound at 20 μM; read-out: % Inhibition at 20 μM.
As usually defined, the inhibition is the change of the read-out against control, counted positive when it falls. Regarding `Nc1nc(-c2ccccc2)cs1` [Compound 7j], the inhibition at 20 µM stood at 22%.
`CNc1nc(-c2ccc(Cl)cc2Cl)cs1` [Compound 7g]: the inhibition at 20 µM was 33%.
As to `N=C(N)SCc1c2ccccc2cc2ccccc12` [Compound 5f], the inhibition at 20 µM turned out to be 22%.
For `N=C(N)SCc1ccc(C(F)(F)F)cc1` [Compound 3n], the inhibition at 20 µM was found to be 46%.
On to `Clc1ccc(CSc2nnc[nH]2)c(Cl)c1` [Compound 9a], for which the inhibition at 20 µM came to 92%.
The same measure, in the same setting: the same measure for `CNc1nc(-c2ccccc2)cs1` [Compound 7d]: 39%; for `CNc1nc(-c2ccc(Cl)cc2)cs1` [Compound 7f]: 34%; for `CC(C)(C)c1ccc(CSC(=N)N)cc1` [Compound 3k]: 52%.
As for `CNc1scc(-c2ccc(F)cc2)[n+]1C` [Compound 8c], the inhibition at 20 µM turned out to be 19%.
Turning to `Clc1ccc(CSC2=NCCN2)c(Cl)c1` [Compound 9i], the inhibition at 20 µM worked out at 45%.
Turning to `CNc1scc(-c2ccc(F)cc2F)[n+]1C` [Compound 8d], the inhibition at 20 µM is 5%.
Same read-out and setting: the same measure for `Nc1nc(-c2ccc(F)cc2F)cs1` [Compound 7e]: 39%; for `N=C(N)SCc1ccc2c(c1)OCO2` [Compound 3l]: 49%.
On the same count and under the same terms, the same measure for `N=C(N)SCc1ccc(C(F)(F)F)cc1C(F)(F)F` [Compound 3j]: 53%; for `Cc1ccc(CSC(=N)N)cc1` [Compound 3p]: 44%.
Regarding `CNc1scc(-c2ccc(Cl)cc2)[n+]1C` [Compound 8a], the inhibition at 20 µM came out at 37%.
For `Cl.N=C(N)SCc1c(Cl)cccc1Cl` [Compound 3s], the inhibition at 20 µM came to 0%.
Consider `N=C(N)SCc1ccncc1` [Compound 5b], for which the inhibition at 20 µM amounted to 94%.
Still for that read-out and setting: the same measure for `CC(SC(=N)N)c1ccc(Cl)c(Cl)c1` (centres unmarked) [Compound 4b]: 99%; for `CNc1nc(-c2ccc(F)cc2F)cs1` [Compound 7a]: 53%; for `Cl.N=C(N)SCc1ccc(Cl)c(Cl)c1` [Compound 3h]: 81%.
With `Nc1nc(-c2ccc(Cl)cc2)cs1` [Compound 7i], the inhibition at 20 µM stood at 29%.
Same read-out and setting: then `N=C(N)SCc1ccc(Cl)c(C(F)(F)F)c1` [Compound 3f], with 94%; and `Clc1ccc(CSC2=NCCN2)cc1` [Compound 9g], with 47%; and `N=C(N)SCc1cccc(Cl)c1` [Compound 3e, 3-chlorobenzylisothiourea], with 100%.
Still for that read-out and setting: the same measure for `Nc1nnc(SCc2ccc(Cl)cc2Cl)[nH]1` [Compound 9b]: 91%; for `Clc1ccc(CSc2ncc[nH]2)c(Cl)c1` [Compound 9e]: 68%; for `Nc1nc(-c2ccc(F)cc2)cs1` [Compound 7h]: 32%.
In the case of `N=C(N)SCc1ccc2ccccc2n1` [Compound 5d], the inhibition at 20 µM was determined as 76%.
As for `Nc1nnc(SCc2ccc(Cl)cc2)[nH]1` [Compound 9d], the inhibition at 20 µM was 76%.
For the compound `CCC(SC(=N)N)c1ccc(Cl)cc1Cl` (centres unmarked) [Compound 4c], the inhibition at 20 µM worked out at 100%.
Consider `CC(SC(=N)N)c1ccc(Cl)cc1Cl` (centres unmarked) [Compound 4a], for which the inhibition at 20 µM is 100%.
As for `N=C(N)SC(Cc1ccccc1)c1ccc(Cl)cc1Cl` (centres unmarked) [Compound 4e], the inhibition at 20 µM was 32%.
On the same count and under the same terms, the same measure for `COc1cc(CSC(=N)N)cc(OC)c1OC` [Compound 3q]: 20%; for `N=C(N)SCc1ccc2ccccc2c1Br` [Compound 5a]: 100%; for `N=C(N)SCc1ccc(Cl)c(F)c1` [Compound 3c]: 100%.
Regarding `N=C(N)SCc1ccccc1Cl` [Compound 3b, 2-chlorobenzylisothiourea], the inhibition at 20 µM was 100%.
For the compound `CNc1scc(-c2ccccc2)[n+]1C` [Compound 8b], the inhibition at 20 µM was found to be 22%.
Same read-out and setting: then `Cl.N=C(N)SCc1c(Cl)cc(Cl)cc1Cl` [Compound 3t], with 0%; and `N=C(N)SCc1ccc2c(c1)C(=O)c1ccccc1C2=O` [Compound 5e], with 56%; and `Cl.N=C(N)SCc1ccccc1` [Compound 3r], with 0%.
With `Nc1nc(-c2ccc(Cl)cc2Cl)cs1` [Compound 7b], the inhibition at 20 µM amounted to 45%.
In the case of `N=C(N)NCc1ccc(Cl)cc1Cl` [Compound 6c], the inhibition at 20 µM was 61%.
Same read-out and setting: then `CNc1nc(-c2ccc(F)cc2)cs1` [Compound 7c], with 43%; and `N=C(N)SCc1cc(Cl)ccc1Cl` [Compound 3i], with 79%; and `Clc1ccc(CSc2nnc[nH]2)cc1` [Compound 9c], with 81%.
`COc1ccc(CSC(=N)N)cc1` [Compound 3o]: the inhibition at 20 µM was determined as 45%.
The same measure, in the same setting: the same measure for `N=C(N)SC(c1ccccc1)c1ccccc1` [Compound 4d]: 21%; for `Clc1ccc(CSc2nc3ccccc3[nH]2)c(Cl)c1` [Compound 9j]: 40%; for `Cl.N=C(N)SCc1cccc(Cl)c1Cl` [Compound 3d]: 100%.
Same read-out and setting: then `N=C(N)SCc1ccc(Cl)cc1` [Compound 3g, 4-chlorobenzylisothiourea], with 88%; and `Clc1ccc(CSc2ncc[nH]2)cc1` [Compound 9f], with 67%.
Turning to `N=C(N)SCc1ccc([N+](=O)[O-])cc1` [Compound 3m], the inhibition at 20 µM amounted to 46%.

The same assay, now with this note: values in μM; read-out: IC50, Rb:Raf-1 binding.
For `N=C(N)SCc1ccc(Cl)c(C(F)(F)F)c1` [Compound 3f], the IC50 was 312 nM.
Take `N=C(N)SCc1cccc(Cl)c1` [Compound 3e, 3-chlorobenzylisothiourea]: the IC50 came to 230 nM.
Take `N=C(N)SCc1ccc(Cl)c(F)c1` [Compound 3c]: the IC50 stood at 81 nM.
Regarding `N=C(N)SCc1ccccc1Cl` [Compound 3b, 2-chlorobenzylisothiourea], the IC50 was 575 nM.
